# Literature values as cited in US8367620B2, “Peptidic growth hormone secretagogues analog compounds and preparations thereof” (Centro de Ingenieria Genetica y Biotecnologia, priority 2006, dated 2013).
# Where no end group is shown, it is not given here. [ ]: non-standard residue; d: D form. d2Nal = N[C@H](Cc1ccc2ccccc2c1)C(=O)O
# Tested on: GH release
# Conditions: McDowell 1995; compared to GHRP-6; cited from earlier work
substance,measurement,value
[dK][d2Nal]AW[dF]EK-NH2,fold increased activity in vitro,10 fold
